Source: PubChem BioAssay (NCI)
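Each compound was tested at five concentrations against cells in 96-well plates for 48 hours. GI50 is the concentration that inhibits growth by half. The concentration for full growth arrest is given as TGI.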

Experiments:
Assay in all cases: NCI tumour cell line growth inhibition, 48 h
KM20L2 colon = system: KM20L2 colon
P388/ADR leukemia = system: P388/ADR leukemia
DMS 114 small cell lung = system: DMS 114 small cell lung
DLD-1 colon = system: DLD-1 colon
DMS 273 small cell lung = system: DMS 273 small cell lung
P388 leukemia = system: P388 leukemia
SNB-78 CNS = system: SNB-78 CNS
XF 498 CNS = system: XF 498 CNS
SN12K1 renal = system: SN12K1 renal
RXF-631 renal = system: RXF-631 renal
LXFL 529 NSCLC = system: LXFL 529 NSCLC

| Structure (SMILES) | TGI (KM20L2 colon) [µM] | TGI (P388/ADR leukemia) [µM] | TGI (DMS 114 small cell lung) [µM] | TGI (DLD-1 colon) [µM] | TGI (DMS 273 small cell lung) [µM] | TGI (P388 leukemia) [µM] | TGI (SNB-78 CNS) [µM] | TGI (XF 498 CNS) [µM] | TGI (SN12K1 renal) [µM] | TGI (RXF-631 renal) [µM] | TGI (LXFL 529 NSCLC) [µM] | GI50 (DMS 114 small cell lung) [µM] | GI50 (DLD-1 colon) [µM] | GI50 (DMS 273 small cell lung) [µM] | GI50 (SNB-78 CNS) [µM] | GI50 (KM20L2 colon) [µM] | GI50 (P388/ADR leukemia) [µM] | GI50 (P388 leukemia) [µM] | GI50 (XF 498 CNS) [µM] | GI50 (SN12K1 renal) [µM] |
| --- | --- | --- | --- | --- | --- | --- | --- | --- | --- | --- | --- | --- | --- | --- | --- | --- | --- | --- | --- | --- |
| Brc1ccc2[nH]c3c(C4=NCCC4)nccc3c2c1 | 23.3 | > 23.8 | > 57.8 | > 43.4 | > 76 | > 21.7 | > 100 | > 72.2 | > 25.7 | – | – | – | – | – | – | – | – | – | – | – |
| CNC(=S)N/N=C/C(C)=N/NC(=S)NC | > 100 | – | > 100 | – | > 100 | – | > 100 | – | – | – | – | – | – | – | – | – | – | – | – | – |
| Cc1c2cc[n+](Cc3ccc(I)cc3)cc2c(C)c2c1[nH]c1ccccc12 | > 15.4 | > 25 | 2.63 | > 25 | 6.17 | 0.558 | > 25 | 1.17 | 5.92 | – | – | – | – | – | – | – | – | – | – | – |
| C/C(=C\C(=O)Nc1ccc2n[nH]nc2c1)Nc1ccc2n[nH]nc2c1 | > 100 | – | > 100 | > 100 | – | – | > 100 | – | – | > 100 | > 100 | – | – | – | – | – | – | – | – | – |
| Nc1nc(SCc2ccccc2Cl)c2ncn(C3OC(CO)C(O)C3O)c2n1 (centres undefined) | > 100 | – | > 100 | > 100 | > 100 | – | – | – | – | – | > 100 | – | – | – | – | – | – | – | – | – |
| N#C[S-].[La+3].c1ccc(-c2ccccn2)nc1.c1ccc(-c2ccccn2)nc1.c1ccc(-c2ccccn2)nc1 | – | – | 97.2 | > 100 | 88.5 | – | > 100 | – | – | – | – | 26.1 | 17.2 | 19.1 | 59.4 | – | – | – | – | – |
| [CH3][Sn]([CH3])([CH3])[S]C(=S)N1CCOCC1 | 8.2 | 0.902 | 3.72 | 5.54 | 6.13 | 0.389 | > 100 | 5.97 | 12.1 | – | – | 0.772 | 0.162 | 0.508 | 9.94 | 0.789 | 0.136 | 0.082 | 0.643 | 1.12 |
